From paper doi:10.1101/2023.08.21.552681v1 (biorxiv, 2023) come the findings set out here.

The target of one test is T1, ctdWDR91 (Homo sapiens, UniProt A4D1P6).
T1 sequence (A4D1P6 392-747): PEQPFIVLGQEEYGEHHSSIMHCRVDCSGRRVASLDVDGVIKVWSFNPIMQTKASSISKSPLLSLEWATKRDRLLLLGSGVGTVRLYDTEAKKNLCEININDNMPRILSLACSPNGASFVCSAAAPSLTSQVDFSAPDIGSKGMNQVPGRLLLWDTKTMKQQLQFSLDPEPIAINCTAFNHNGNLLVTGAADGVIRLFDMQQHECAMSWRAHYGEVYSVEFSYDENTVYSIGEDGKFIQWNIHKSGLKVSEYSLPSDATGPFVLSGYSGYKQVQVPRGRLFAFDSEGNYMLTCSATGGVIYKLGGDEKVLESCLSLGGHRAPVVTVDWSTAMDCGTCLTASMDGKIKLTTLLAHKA
Briefly: biochemical.
Details: not given
`OC1CN(C2CC2)CC1N1CCc2ccccc2C1` (centres unmarked) [MRGG045310a] registered a Kd of more than 45 µM.

The compound `O=C(Nc1ccc2oc(=O)ccc2c1)c1cc(F)c(F)cc1[N+](=O)[O-]` [MRGG044828a] showed a Kd of more than 45 µM. Compound `O=C(c1snc(O)c1Cl)N1CCC2(CCc3ccccc3O2)C1` (centres unmarked) [MRGG044808a] gave an equilibrium dissociation constant (Kd) of more than 45 µM. Still for that read-out and setting: with `c1ccc(CN2CCC3(CCN(C4CC4)C3)C2)cc1` (centres unmarked) [MRGG045337a] the figure was more than 45 µM.

For a further test, the target named is T1, ctdWDR91. Kind of test: biochemical.
Details: not given
This is another data set of the same source.
As to `O=C(NC1(c2ccc(Cl)cc2)COC1)c1ccc(N2CCCC2)cc1` [DRGG001988a], the dissociation constant Kd was more than 45 µM. With `CC1(NC(=O)c2ccc(N3CCC(O)C3)cc2)CCN(C(=O)OC(C)(C)C)C1` (centres unmarked) [DRGG002003a], the Kd is more than 45 µM. Compound `O=C(NC1(c2ccc(Cl)cc2)COC1)c1ccc2c(c1)NC(=O)C1CCCN21` (centres unmarked) [DRGG002018a] returned a dissociation constant Kd of more than 45 µM. The same measure, in the same setting: with `O=C(N[C@@H]1CCN(C2CC2)[C@H]1c1ccccc1)c1ccc(N2CCC(O)C2)cc1` (some centres unmarked) [DRGG001958a] the figure was more than 45 µM. In turn, `O=C(N[C@@H]1CC2(CCC2)Oc2ccc(F)cc21)c1ccc(N2CCC(O)C2)cc1` (some centres unmarked) [DRGG001964a] gave an equilibrium dissociation constant (Kd) of more than 45 µM. Turning to `O=C(NCC1CCN(c2ccc(F)cc2)C1)C1(c2ccc(Cl)cc2)CCOCC1` (centres unmarked) [DRGG001995a], the Kd is more than 45 µM. In turn, `O=C(c1ccc(N2CCC(O)C2)cc1)N1Cc2ccc(Cl)cc2C1` (centres unmarked) [DRGG001955a] showed a Kd of more than 45 µM. On the same count and under the same terms, with `O=C(NCC1CCN(c2ccc(F)cc2)C1)NCC1(c2ccc(Cl)cc2)CC1` (centres unmarked) [DRGG002008a] the figure was more than 45 µM; with `O=C(CNC(=O)c1ccc(F)cc1)NC1CCN(c2ccc(Cl)cc2)C1` (centres unmarked) [DRGG001962a], more than 45 µM; with `O=C(NC1(Cc2ccccc2)COC1)c1ccc(N2CCC(O)C2)cc1` (centres unmarked) [DRGG001952a], more than 45 µM. Regarding `O=C(NCCOc1ccc(Cl)cc1)c1ccc(N2CCC(O)C2)cc1` (centres unmarked) [DRGG002013a], the Kd was more than 45 µM. `NC(=O)c1ccc(C2(C(=O)NCC3CCN(c4ccc(Cl)cc4)C3)CC2)cc1` (centres unmarked) [DRGG002017a] showed a Kd of more than 45 µM. For the compound `O=C(NCC1CCN(c2ccc(F)cc2)C1)c1ccc(Cl)cc1` (centres unmarked) [DRGG001960a], the Kd is more than 45 µM. In the case of `O=C(NC(CCO)c1ccc(Cl)cc1)c1ccc(N2CCC(O)C2)cc1` (centres unmarked) [DRGG001961a], the Kd was 14 µM.

Regarding `C[C@@H](NC(=O)c1ccc(N2CCC(O)C2)cc1)c1ccc2c(c1)CCCC2` (some centres unmarked) [DRGG001990a], the Kd is more than 45 µM. The compound `C=CC(=O)N1CCCc2c(C(=O)NC(c3ccc(F)cc3)C3CCCCC3)cccc21` (centres unmarked) [DRTR002366a] registered a Kd of more than 45 µM. With `O=C(CNC(=O)c1ccc(O)cc1)NCC1CCN(c2ccc(Cl)cc2)C1` (centres unmarked) [DRGG001951a], the Kd is more than 45 µM. In the case of `O=C(N[C@@H]1C[C@H]1c1ccc(Cl)cc1)c1ccc(N2CCC(O)C2)cc1` (some centres unmarked) [DRGG001986a], the dissociation constant (Kd) was more than 45 µM. Compound `Cc1nc2sccn2c1C(=O)NC1(c2ccc(Cl)cc2)COC1` [DRGG001989a] gave an equilibrium dissociation constant (Kd) of more than 45 µM. On the same count and under the same terms, with `O=C(Nc1cccc2c1CN(C1CC1)C2)c1ccc(N2CCC(O)C2)cc1` (centres unmarked) [DRGG001985a] the figure was more than 45 µM. The same measure, in the same setting: with `N#CC1(c2ccc(C(=O)NCC3CCN(c4ccc(Cl)cc4)C3)cc2)CC1` (centres unmarked) [DRGG001993a] the figure was more than 45 µM. Turning to `O=C(NC1CCN(c2ccc(F)cc2)C1)c1ccc(Cl)cc1` (centres unmarked) [DRGG001976a], the Kd is more than 45 µM.

`O=C(NC1CC2(CCC2)Oc2ccccc21)c1ccc(N2CCC(O)C2)cc1` (centres unmarked) [DRGG001975a] showed an equilibrium dissociation constant (Kd) of more than 45 µM. Compound `CC1CCN(c2ccc(C(=O)NC3(Cc4cccc(F)c4)CC3)cc2)C1` (centres unmarked) [DRGG002009a] yielded an equilibrium dissociation constant (Kd) of more than 45 µM. For the compound `O=C(NCCc1ccc(Cl)cc1)c1ccc(N2CCC(O)C2)cc1` (centres unmarked) [DRGG001935a], the Kd was more than 45 µM.

`O=C(NCC1CCN(c2ccc(F)cc2)C1)NC1(c2ccc(Cl)cc2)CC1` (centres unmarked) [DRGG002015a] gave a Kd of more than 45 µM.

The compound `O=C(NC1CCN(c2ccc(Cl)cc2)C1)c1ccc(C2(O)COC2)cc1` (centres unmarked) [DRGG001966a] returned a Kd of more than 45 µM.

`O=C(NC1(c2ccc(Cl)cc2)COC1)c1cncc2cnccc12` [DRGG001948a] had a Kd of more than 45 µM.

`C=CC(=O)Nc1ccc(CC(=O)NC2(c3ccccc3)COC2)cc1` [MRTR046653a] gave a Kd of more than 45 µM.

`O=C(NC1CC1)c1ccc(C(=O)NC2CCN(c3ccc(Cl)cc3)C2)cc1` (centres unmarked) [DRGG002012a] returned a dissociation constant Kd of more than 45 µM. `O=C(NCC1CCN(c2ccc(Cl)cc2)C1)c1ccc(C(=O)NC2CC2)cc1` (centres unmarked) [DRGG001936a] had a Kd of more than 45 µM. On to `O=C(NC1(c2ccc(Cl)cc2)COC1)c1cccc(N2CCCC2)c1` [DRGG001982a], for which the Kd was more than 45 µM. `O=C(NCC1CCN(c2ccc(Cl)cc2)C1)c1ccc(C2(O)COC2)cc1` (centres unmarked) [DRGG001959a] registered a Kd of more than 45 µM. With `CC1CCN(c2ccc(C(=O)NC3(c4ccc(F)cc4)CC3)cc2)C1` (centres unmarked) [DRGG002016a], the equilibrium dissociation constant (Kd) is more than 45 µM. `O=C(NCC1CCN(c2ccc(F)cc2)C1)N1CC(O)(c2ccc(Cl)cc2)C1` (centres unmarked) [DRGG002002a]: the Kd is more than 45 µM. `O=C(CNC(=O)c1ccc(N2CCC(O)C2)cc1)OCc1ccc(Cl)cc1` (centres unmarked) [DRGG002006a] registered a dissociation constant Kd of more than 45 µM.

Consider `O=C(NCC1CCN(c2ccc(F)cc2)C1)c1ccc(N2CCC(O)C2)cc1` (centres unmarked) [DRGG001938a], for which the Kd is more than 45 µM. Same read-out and setting: with `O=C(NC1(c2ccc(Cl)cc2)CC1)c1ccc(N2CCC(O)C2)cc1` (centres unmarked) [DRGG001980a] the figure was more than 20 µM; with `Cc1ccc(N2CCC(NC(=O)c3ccc(Cl)cc3)C2)cc1` (centres unmarked) [DRGG001953a], more than 45 µM; with `O=C(NCC1CCN(c2ccc(Cl)cc2)C1)c1cccc(C2(O)COC2)c1` (centres unmarked) [DRGG001996a], more than 45 µM. Compound `NC(=O)C1CCCN(c2ccc(C(=O)NC(c3ccc(Cl)cc3)C3CC3)cc2)C1` (centres unmarked) [DRGG001957a] returned a Kd of 16 µM. `CC1CCN(c2ccc(C(=O)NCC3(c4ccc(F)cc4)CC3)cc2)C1` (centres unmarked) [DRGG001965a] gave a Kd of more than 45 µM. Still for that read-out and setting: with `O=C(NCC1CCN(c2ccc(Cl)cc2)C1)c1ccc(C2CCCOC2)cc1` (centres unmarked) [DRGG001987a] the figure was more than 45 µM; with `O=C(NCC1CCN(c2ccc(Cl)cc2)C1)c1ccc(OC2CCOC2)cc1` (centres unmarked) [DRGG001945a], more than 45 µM. With `O=C1Cc2c(cccc2C(=O)NC2(c3ccc(Cl)cc3)COC2)N1` [DRGG001947a], the Kd is more than 45 µM.

In the case of `O=C(NCC1CCN(c2ccc(Cl)cc2)C1)N1CC(O)(c2ccc(F)cc2)C1` (centres unmarked) [DRGG002007a], the Kd was more than 45 µM. `O=C(NCC1CCN(Cc2ccccc2)C1)c1ccc(N2CCC(O)C2)cc1` (centres unmarked) [DRGG001968a] came in with a Kd of more than 45 µM. Turning to `Nc1ncnc2cc(C(=O)NC3(c4ccc(Cl)cc4)COC3)ccc12` [DRGG001943a], the affinity, expressed as Kd, was 37 µM. `O=C(NC1CCN(c2ccc(Cl)cc2)C1)c1ccc(CN2CCCC2=O)cc1` (centres unmarked) [DRGG001992a] registered a Kd of more than 45 µM. The same measure, in the same setting: with `O=C(NC1CCN(c2ccc(Cl)cc2)C1)c1ccc(N2CCC(O)C2)cc1` (centres unmarked) [DRGG001963a] the figure was more than 45 µM; with `O=C(Nc1cccc2cnccc12)c1ccc(N2CCC(O)C2)cc1` (centres unmarked) [DRGG001979a], more than 45 µM. `O=C(NC1CCN(c2ccc(Cl)cc2)C1)c1ccc2c(c1)CC2` (centres unmarked) [DRGG001973a]: the Kd was more than 45 µM. On the same count and under the same terms, with `O=C1CCC(c2ccc(C(=O)NC3CCN(c4ccc(Cl)cc4)C3)cc2)N1` (centres unmarked) [DRGG001984a] the figure was more than 45 µM; with `O=C(N[C@@H]1CCO[C@H]1c1ccc(Cl)cc1)c1ccc(N2CCC(O)C2)cc1` (some centres unmarked) [DRGG002001a], more than 45 µM.

With `O=C(NC1(c2ccc(Cl)cc2)COC1)c1ccc(OCC2CC2)cc1` [DRGG001971a], the Kd was more than 45 µM. Same read-out and setting: with `CC1(c2ccc(C(=O)NC3CCN(c4ccc(F)cc4)C3)cc2)CC1` (centres unmarked) [DRGG001994a] the figure was more than 45 µM. In turn, `O=C(NC1(c2ccc(Cl)cc2)COC1)c1ccc(CC2CC2)cc1` [DRGG001970a] gave a Kd of more than 45 µM. The same measure, in the same setting: with `O=C(NOCc1ccc(Cl)cc1)c1ccc(N2CCC(O)C2)cc1` (centres unmarked) [DRGG002010a] the figure was more than 45 µM.

In turn, `CC1CCN(c2ccc(C(=O)NC3(Cc4ccc(F)cc4)CC3)cc2)C1` (centres unmarked) [DRGG002014a] had a Kd of more than 45 µM.

For the compound `O=C(NCC1CCN(c2ccc(Cl)cc2)C1)c1ccc(CN2CCOCC2)cc1` (centres unmarked) [DRGG001983a], the Kd was more than 45 µM. Still for that read-out and setting: with `O=C(NCC1CCN(c2ccc(Cl)cc2)C1)c1ccc(F)cc1` (centres unmarked) [DRGG001950a] the figure was more than 45 µM.

With `CC(NC(=O)c1ccc(N2CCC(O)C2)cc1)c1cccc(N2CCCC2)c1` (centres unmarked) [DRGG001998a], the Kd was more than 45 µM.

With `O=C(NC1CCc2cc(Cl)ccc21)c1ccc(N2CCC(O)C2)cc1` (centres unmarked) [DRGG001981a], the Kd was more than 45 µM. As to `O=C(NCc1ccc2nsnc2c1)c1ccc(N2CCC(O)C2)cc1` (centres unmarked) [DRGG002011a], binding was put at a Kd of 12 µM. `CC1CCN(c2ccc(C(=O)NC3(C)Cc4ccccc4C3)cc2)C1` (centres unmarked) [DRGG001937a] registered a Kd of more than 45 µM. `O=C(NCC1CCN(c2ccc(Cl)cc2)C1)NC1(c2ccc(F)cc2)CC1` (centres unmarked) [DRGG002005a] registered a Kd of more than 45 µM. Same read-out and setting: with `NC(=O)C1CCCN(c2ccc(C(=O)NC(CCO)c3ccc(Cl)cc3)cc2)C1` (centres unmarked) [DRGG001997a] the figure was 22 µM; with `O=C(NC1(c2ccc(Cl)cc2)COC1)C1CCN(c2ccccc2)C1` (centres unmarked) [DRGG001991a], more than 45 µM.

The next test deals with T1, ctdWDR91.
Assay: not given
Conditions: at saturation (0-200 uM series), 2 h pre-incubation; covalent.
The compound `C=CC(=O)N1CCCc2c(C(=O)NC3(c4ccc(Cl)cc4)COC3)cccc21` [MRTR046654a] gave a DSF_delta_Tm_ of 4 °C. For `C=CC(=O)N1CCCc2c(C(=O)NC(c3ccc(Cl)cc3)C3CC3)cccc21` (centres unmarked) [DRTR002365a], the DSF_delta_Tm_ is 4 °C.

For orientation: Kd means the free concentration of one partner at which half of the binding sites on the other are occupied at equilibrium, for simple one-to-one binding.
